The subject of one test is Z-138 cells. Description: Z-138 Proliferation Assay (Cell Titer Glo, 5 days). Type of test: cell-based. The settings on record: Homo sapiens, 120 h. The source says: Z-138 Proliferation Assay
Z-138 suspension cells were purchased from ATCC (American Type Culture Collection, Manassas, Va.). RPMI/Glutamax medium, penicillin-streptomycin, heat inactivated fetal bovine serum were purchased from Life Technologies, Grand Island, N.Y., USA. V-bottom polypropylene 384-well plates were purchased from Greiner Bio-One, Monroe, N.C., USA. Cell culture 384-well white opaque plates were purchased from Perkin Elmer, Waltham, Mass., USA. Cell-Titer Glo® was purchased from Promega Corporation, Madison, Wis., USA. SpectraMax M5 plate reader was purchased from Molecular Devices LLC, Sunnyvale, Calif., USA.
Z-138 suspension cells were maintained in growth medium (RPMI 1640 supplemented with 10% v/v heat inactivated fetal bovine serum and cultured at 37° C. under 5% CO2 Under assay conditions, cells were incubated in assay medium (RPMI 1640 supplemented with 10% v/v heat inactivated fetal bovine serum and 100 units/mL penicillin-streptomycin) at 37° C. under 5% CO2.
For the assessment of the effect of compounds on the proliferation of the Z-138 cell line, exponentially growing cells were plated in 384-well white opaque plates at a density of 10,000 cells/ml in a final volume of 50 μl of assay medium. A compound source plate was prepared by performing triplicate nine-point 3-fold serial dilutions in DMSO, beginning at 10 mM (final top concentration of compound in the assay was 20 μM and the DMSO was 0.2%). A 100 nL aliquot from the compound stock plate was added to its respective well in the cell plate. […] After addition of compounds, assay plates were incubated for 5 days at 37° C., 5% CO2, relative humidity>90%.
Cell viability was measured by quantitation of ATP present in the cell cultures, adding 35 μl of Cell Titer Glo® reagent to the cell plates. Luminescence was read in the SpectraMax M5 microplate reader. The concentration of compound inhibiting cell viability by 50% was determined using a 4-parametric fit of the normalized dose response curves.
For orientation: Cellular ATP, detected with luciferase, serves as a proxy for viable cell number.

For test [1], the system named is Symmetric di-Methyl Arginine in Z-138 cells. Description: Z-138 Methylation Assay (In Cell Western for symmetric di-methyl arginine and DNA content). The settings on record: Homo sapiens, read-out: ICW EC50. Type of test: cell-based. The source says: Z-138 suspension cells were purchased from ATCC (American Type Culture Collection, Manassas, Va.). RPMI/Glutamax medium, penicillin-streptomycin, heat inactivated fetal bovine serum, and D-PBS were purchased from Life Technologies, Grand Island, N.Y., USA. Odyssey blocking buffer, 800CW goat anti-rabbit IgG (H+L) antibody, and Licor Odyssey infrared scanner were purchased from Licor Biosciences, Lincoln, Nebr., USA. Symmetric di-methyl arginine antibody was purchased from EMD Millipore, Billerica, Mass., USA. 16% Paraformaldehyde was purchased from Electron Microscopy Sciences, Hatfield, Pa., USA.
Z-138 suspension cells were maintained in growth medium (RPMI 1640 supplemented with 10% v/v heat inactivated fetal bovine serum and 100 units/mL penicillin-streptomycin) and cultured at 37° C. under 5% CO2 […]
Calculations: First, the ratio for each well was determined by:
Each plate included fourteen control wells of DMSO only treatment (minimum inhibition) as well as fourteen control wells for maximum inhibition treated with 3 μM of a reference compound (Background wells). The average of the ratio values for each control type was calculated and used to determine the percent inhibition for each test well in the plate. […] Percent inhibition was determined and IC50 curves were generated using triplicate wells per concentration of compound.

Molecules are shown by their SMILES.

Broadly, the EC50 is the concentration giving half of the maximal effect.

Regarding `OC(COc1cccc(-c2ccc3ncsc3c2)c1)CN1CCc2ccccc2C1` (centres unmarked) [Compound 123, 1-(3-(benzo[d]thiazol-6-yl)phenoxy)-3-(3,4-dihydroisoquinolin-2(1H)-yl)propan-2-ol], the values for the EC50 (with Z-138 cells; in test [1]) were 10 to 40 µM and 1 to 10 µM, respectively.

These data come from patent US20180298010A1, “PRMT5 INHIBITORS AND USES THEREOF” (Epizyme, Inc., priority 2012, published 2018).
